Measurements taken from patent publication US11440913B2, “Aminoimidazopyridazines as kinase inhibitors” (BRISTOL-MYERS SQUIBB COMPANY, priority 2017, dated 2022).
Structures can show the parent of a compound that is named as a salt. Where two headings read alike, the source gives them in different places.

What was measured:
[1] = system: MLKL phosphorylation in HT29-L23 human colorectal adenocarcinoma cells; experiment: MLKL Phosphorylation High-Content Assay; type: cell-based; details: 6 h, necroptosis induced with TNFα, SMAC mimetic and Z-VAD, read-out: pMLKL (IC50)
In short: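 HT29-L23 cells pretreated 30 min at 37 °C with compound (6.25 to 0.106 μM final), then necroptosis induced with TNFα 35 ng/mL, SMAC mimetic 700 nM and Z-VAD 140 nM for 6 h. Fixed cells immunostained for MLKL pS358 and imaged; IC50 and Ymax from 4-parameter logistic fit.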

[2] = molecular target: His-GST-TVMV-hRIPK1(1-324) (Homo sapiens (Human), UniProt Q13546); experiment: RIPK1 HTRF Binding Assay; details: HTRF binding, 1 h at rt; read-out: RIPK1 (IC50)
In short: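 HTRF probe-displacement binding: 1 nM His-GST-TVMV-hRIPK1(1-324) (baculovirus construct), 90.6 nM probe, 0.2 nM anti-GST-Tb in 20 mM HEPES, 10 mM MgCl2, 0.015% Brij-35, 4 mM DTT, 0.05 mg/mL BSA. Incubated 1 h at rt; FRET 520/495 nm ratio, inhibition relative to DMSO-only wells.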

Sequence of His-GST-TVMV-hRIPK1(1-324) (Q13546 1-324): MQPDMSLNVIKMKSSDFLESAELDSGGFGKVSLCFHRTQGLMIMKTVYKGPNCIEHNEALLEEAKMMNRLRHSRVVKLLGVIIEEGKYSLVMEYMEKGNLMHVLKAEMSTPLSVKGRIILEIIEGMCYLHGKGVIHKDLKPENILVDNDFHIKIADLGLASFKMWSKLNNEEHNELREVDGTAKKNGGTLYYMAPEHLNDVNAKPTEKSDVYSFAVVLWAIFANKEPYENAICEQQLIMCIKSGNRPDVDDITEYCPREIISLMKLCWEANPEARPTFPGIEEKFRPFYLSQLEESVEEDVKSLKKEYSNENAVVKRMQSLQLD

`Cc1ncc(-c2ccc3nc(NC(=O)CN4CCN(C)CC4)cn3n2)cc1C(=O)N[C@H](C)c1cc(OC(F)(F)F)ccc1F` [Example 336, N-[(1R)-1-[2-fluoro-5-(trifluoromethoxy)-phenyl]ethyl]-2-methyl-5-{2-[2-(4-methylpiperazin-1-yl)acetamido]imidazo[1,2-b]pyridazin-6-yl}pyridine-3-carboxamide] was tested, and the IC50 ([1]; Homo sapiens) was 8 nM and the IC50 [2] was 19 nM.

Work on `COc1cc(C)c(-c2ccc3nc(NC(=O)CO)cn3n2)cc1C(=O)NCc1cc(OC(F)(F)F)ccc1F` [Example 422, N-(2-fluoro-5-(trifluoromethoxy)benzyl)-5-(2-(2-hydroxyacetamido)imidazo[1,2-b]pyridazin-6-yl)-2-methoxy-4-methylbenzamide] yielded an IC50 ([1]; Homo sapiens) of 75 nM and an IC50 [2] of 6 nM.

`Cc1nc(C)c(-c2ccc3nc(NC(=O)CO)cn3n2)cc1C(=O)NCc1cc(F)cc(F)c1O[C@H]1CCOC1` [Example 91, N-({3,5-difluoro-2-[(3S)-oxolan-3-yloxy]phenyl}methyl)-5-[2-(2-hydroxy-acetamido)imidazo[1,2-b]pyridazin-6-yl]-2,6-dimethylpyridine-3-carboxamide, TFA] gave an IC50 ([1]; Homo sapiens) of 442 nM and an IC50 [2] of 61 nM.

Compound `[2H]C([2H])([2H])[C@@H](NC(=O)c1cc(-c2ccc3nc(NC(C)=O)cn3n2)cnc1C)c1cc(C(F)(F)F)ccc1F` [Example 197, 5-{2-acetamidoimidazo[1,2-b]pyridazin-6-yl}-N-[(1R)-1-[2-fluoro-5-(trifluoromethyl)phenyl](2,2,2-deutero)ethyl]-2-methylpyridine-3-carboxamide] has an IC50 ([1]; Homo sapiens) of 23 nM and an IC50 [2] of 72 nM.

`COc1ncc(-c2ccc3nc(NC(C)=O)cn3n2)cc1C(=O)NCc1c(F)cccc1OC1CCCC1` [Example 156, N-{[2-(cyclopentyloxy)-6-fluorophenyl]methyl}-5-{2-acetamidoimidazo[1,2-b]pyridazin-6-yl}-2-methoxypyridine-3-carboxamide] gave an IC50 ([1]; Homo sapiens) of 3 nM and an IC50 [2] of 2 nM.

With `CCC(=O)Nc1cn2nc(-c3cnc(OC)c(C(=O)NCc4ccc(F)c(F)c4OCC4CC4)c3)ccc2n1` [Example 249, N-{[2-(cyclopropylmethoxy)-3,4-difluorophenyl]methyl}-2-methoxy-5-{2-propanamidoimidazo[1,2-b]pyridazin-6-yl}pyridine-3-carboxamide] the IC50 ([1]; Homo sapiens) was 132 nM and the IC50 [2] was 29 nM.

In the case of `COc1nc(C)c(-c2ccc3nc(NC(C)=O)cn3n2)cc1C(=O)NCc1ccccc1OC(C)CO` (stereo not drawn) [Example 17, 5-{2-acetamidoimidazo[1,2-b]pyridazin-6-yl}-N-({2-[(1-hydroxypropan-2-yl)oxy]phenyl}methyl)-2-methoxy-6-methylpyridine-3-carboxamide], the IC50 ([1]; Homo sapiens) is reported as 129 nM and the IC50 [2] is reported as 27 nM.

Compound `CC(=O)Nc1cn2nc(-c3cc(C(=O)NCc4cccc(OC(F)(F)F)c4)c(C)nc3C)ccc2n1` [Example 88, 5-{2-acetamidoimidazo[1,2-b]pyridazin-6-yl}-2,6-dimethyl-N-{[3-(trifluorometh-oxy)phenyl]methyl}pyridine-3-carboxamide] has an IC50 ([1]; Homo sapiens) of 42 nM and an IC50 [2] of 25 nM.

With `COc1nc(C)c(-c2ccc3nc(NC(C)=O)cn3n2)cc1C(=O)N(C)Cc1ccccc1OC(F)(F)F` [Example 283, 5-{2-acetamidoimidazo[1,2-b]pyridazin-6-yl}-2-methoxy-N,6-dimethyl-N-{[2-(trifluoromethoxy)phenyl]methyl}pyridine-3-carboxamide] the IC50 ([1]; Homo sapiens) was 67 nM and the IC50 [2] was 16 nM.

With `CC(=O)Nc1cn2nc(-c3cc(F)c(C)c(C(=O)NCc4ccccc4Oc4ccccc4)c3)ccc2n1` [Example 364, 5-{2-acetamidoimidazo [1,2-b]pyridazin-6-yl}-3-fluoro-2-methyl-N-[(2-phenoxyphenyl)methyl] benzamide] the IC50 ([1]; Homo sapiens) was 7 nM and the IC50 [2] was 7 nM.

For `CC(=O)Nc1cn2nc(-c3cnc(Cl)c(C(=O)NC(C)c4ccccc4OC(F)(F)F)c3)ccc2n1` (stereo not drawn) [Example 271, 2-chloro-5-{2-acetamidoimidazo[1,2-b]pyridazin-6-yl}-N-{1-[2-(trifluoromethoxy)phenyl]ethyl}pyridine-3-carboxamide], the IC50 [1] was 129 nM and the IC50 [2] was 49 nM.

`CC(=O)Nc1cn2nc(-c3cnc(C)c(C(=O)NCC(C)(O)Cc4ccc(F)cc4)c3)ccc2n1` (stereo not drawn) [Example 356, 5-{2-acetamidoimidazo[1,2-b]pyridazin-6-yl}-N-[3-(4-fluorophenyl)-2-hydroxy-2-methylpropyl]-2-methylpyridine-3-carboxamide] was tested, and the IC50 ([1]; Homo sapiens) was 485 nM and the IC50 [2] was 150 nM.

`[2H]C([2H])([2H])Oc1ncc(-c2ccc3nc(NC(C)=O)cn3n2)cc1C(=O)NCc1cc(OCC2CC2)ccc1F` [Example 56, N-{[5-(cyclopropylmethoxy)-2-fluorophenyl]methyl}-5-{2-acetamidoimidazo[1,2-b]pyri-dazin-6-yl}-2-(D3)methoxypyridine-3-carboxamide, TFA] gave an IC50 ([1]; Homo sapiens) of 67 nM and an IC50 [2] of 13 nM.

`[2H]C([2H])([2H])Oc1cc(C)c(-c2ccc3nc(NC(C)=O)cn3n2)cc1C(=O)NCc1cc(OC(F)(F)F)ccc1F` [Example 417] gave an IC50 ([1]; Homo sapiens) of 9 nM and an IC50 [2] of 4 nM.

`CC(=O)Nc1cn2nc(-c3cc(F)c(F)c(C(=O)NCc4cc(OC(F)(F)F)ccc4F)c3)ccc2n1` [Example 366, 5-{2-acetamidoimidazo [1,2-b]pyridazin-6-yl}-2,3-difluoro-N-{[2-fluoro-5-(trifluoromethoxy)phenyl]methyl} benzamide] was tested, and the IC50 ([1]; Homo sapiens) was 123 nM and the IC50 [2] was 13 nM.

`CC(=O)Nc1cn2nc(-c3cc(C(=O)NCc4cc(F)cc(F)c4OC4CCCOC4)c(C)nc3C)ccc2n1` (stereo not drawn) [Example 59, N-{[3,5-difluoro-2-(oxan-3-yloxy)phenyl]methyl}-5-{2-acetamidoimidazo[1,2-b]pyridazin-6-yl}-2,6-dimethylpyridine-3-carboxamide] was tested, and the IC50 ([1]; Homo sapiens) was 17 nM and the IC50 [2] was 12 nM.

Compound `CC(=O)Nc1cn2nc(-c3cnc(C)c(C(=O)NCc4cc(C(F)(F)F)ccc4F)c3)ccc2n1` [Example 206, 5-{2-acetamidoimidazo[1,2-b]pyridazin-6-yl}-N-{[2-fluoro-5-(trifluoromethyl)phenyl]methyl}-2-methylpyridine-3-carboxamide, TFA] has an IC50 ([1]; Homo sapiens) of 37 nM and an IC50 [2] of 12 nM.

Work on `COc1ncc(-c2ccc3nc(NC(C)=O)cn3n2)cc1C(=O)NCc1cc(F)ccc1OCC(F)(F)F` [Example 105, 5-{2-acetamidoimidazo[1,2-b]pyridazin-6-yl}-N-{[5-fluoro-2-(2,2,2-trifluoroethoxy)phenyl]methyl}-2-methoxypyridine-3-carboxamide] yielded an IC50 ([1]; Homo sapiens) of 17 nM and an IC50 [2] of 5 nM.

For `CC(=O)Nc1cn2nc(-c3cncc(C(=O)NCc4cc(OCC5CC5)ccc4F)c3)ccc2n1` [Example 236, N-{[5-(cyclopropylmethoxy)-2-fluorophenyl]methyl}-5-{2-acetamidoimidazo[1,2-b]pyridazin-6-yl}pyridine-3-carboxamide], the IC50 ([1]; Homo sapiens) was 180 nM and the IC50 [2] was 95 nM.

`CC(=O)Nc1cn2nc(-c3cncc(C(=O)NCc4cc(F)ccc4OC4CCCC4)c3)ccc2n1` [Example 242, N-{[2-(cyclopentyloxy)-5-fluorophenyl]methyl}-5-{2-acetamidoimidazo[1,2-b]pyridazin-6-yl}pyridine-3-carboxamide] gave an IC50 ([1]; Homo sapiens) of 11 nM and an IC50 [2] of 4 nM.

Work on `CC(=O)Nc1nc2ccc(-c3cnc(C)c(C(=O)NCc4cc(OC(F)(F)F)ccc4F)c3)nn2c1C` [Example 253, 5-{2-acetamido-3-methylimidazo[1,2-b]pyridazin-6-yl}-N-{[2-fluoro-5-(trifluoromethoxy)phenyl]methyl}-2-methylpyridine-3-carboxamide] yielded an IC50 ([1]; Homo sapiens) of 53 nM and an IC50 [2] of 14 nM.
